Assays:
[1] = system: c-Myc; assay: c-Myc protein and RNA levels in SUM159 cells (western blot, qRT-PCR); format: cell-based, human
Method: (§1) Western blotting and RTK arrays: Western blotting and RTK array analysis were performed as previously described (Amin et al., 2010). Amin et al. 2010 Sci Transl Med 2, 16ra17. Detailed methods and antibodies are provided in Supplemental Experimental Procedures.
qRT-PCR: Total RNA was isolated from human breast cancer cell lines or murine tumors using the RNeasy® Plus Mini Kit (Qiagen). Real-time RT-PCR was performed on diluted cDNA using the Applied Biosystems 7500 Fast Real-Time PCR System (standard program) and inventoried TaqMan® Gene Expression Assays. Each cDNA sample was assayed in triplicate. Fold change with respect to the calibrator represents the average of the triplicate values, with error bars representing the range of the mean (95% confidence).
(§2) Western blotting: Proteins from cell lysates were separated by SDS-PAGE chromatography, transferred to nitrocellulose membranes, and probed with the indicated primary antibodies. Antibodies recognizing pAKT (S473), pAKT (T308), AURA, pAXL (Y702), AXL, c-Myc, DDR1, EGFR, pERK1/2 (T202/Y204), pHER3 (Y1197), MAX, pMEK1/2 (S217/S221), MEK1/2, MKP3, pP70S6K (T389), pPDGFRβ (Y751), pPDGFRβ (Y1009), pPDGFR (Y857), PDGFRβ, pRAF (S338), pRSK1 (T359/S363), pVEGFR2 (Y1175), VEGFR2 were obtained from Cell Signaling Technology. Antibodies for Cyclin A2, Cyclin B1, Cyclin D1, ERK2, RAF, and pRAF (S259) were obtained from Santa Cruz Biotechnology. The antibody recognizing Bim was obtained from Chemicon. The antibody recognizing p-c-Myc (S62) was obtained from Abeam. Secondary HRP-anti-rabbit and HRP-anti-goat secondary antibodies were from Jackson Immunoresearch Laboratories and Santa Cruz Biotechnology, respectively. Western blots were visualized by incubation with SuperSignal West Pico Chemiluminescent Substrate (Thermo Scientific).

[2] = system: ERK1/2; assay: Western blot of MEK/ERK signaling in SUM159 cells; format: cell-based, human; settings: BEZ235 (FIG. 10F)
Text: (§3) Detailed methods and antibodies are provided in Supplemental Experimental Procedures.
as §2

[3] = system: p70 S6 kinase; assay: p70 S6 kinase activity in SUM159 cells; format: cell-based, human; settings: BEZ235 (FIG. 10F)
Text: as §3, §2

[4] = system: SUM159 cells; assay: SUM159 cell growth (Cell-Titer Glo, cell counts); format: cell-based, human; settings: for SUM159 cell growth inhibition in combination with AZD6244 / SUM159 cell growth inhibition, RTK inhibitor as single agent: Cell-Titer Glo (FIG. 5C, 5D)
Method: (§4) Cell Culture: MDA-MB-231 cells were grown in DMEM/F12 supplemented with 10% FBS. SUM-159 cells were grown in DMEM/F12 supplemented with 10% FBS 1 μg/mL hydrocortisone, and 5 μg/mL insulin. SUM159-R cells were continually grown in the presence of 5 μM AZD6244. For SILAC labeling, cells were grown for five doublings in arginine- and lysine-depleted media (as above) supplemented with either unlabeled L-arginine (42 mg/L) and L-lysine (71 mg/L) or equimolar amounts of heavy isotope labeled [13C6,15N4]arginine (Arg10) and [13C6]lysine (Lys6) (Cambridge Isotope Laboratories). Proliferation was quantified using Cell-Titer Glo Luminescent Cell Viability Assay (Promega). Fresh media containing DMSO or kinase inhibitors was added daily and experiments were performed in triplicate.

[5] = system: RTKs; assay: RTK tyrosine phosphorylation/expression in SUM159 cells (RTK arrays, western blot); format: cell-based, human
Method: as §1, §2
RTK arrays: Cells were harvested in RTK array lysis buffer containing 20 mM Tris-HCl (pH 8.0), 1% NP-40, 10% glycerol, 137 mM NaCl, 2 mM EDTA, 1×EDTA-free protease inhibitor cocktail (Roche), and 1% each of phosphatase inhibitor cocktails 1 and 2 (Sigma). After incubating on ice for 20 minutes, cell debris was pelleted at 4° C. Lysates (500 μg protein) were applied to R&D Systems Proteome Profiler™ Human Phospho-RTK antibody arrays. Washing and secondary antibody steps were performed according to the manufacturer“s instructions. RTK arrays were visualized by SuperSignal West Pico Chemiluminescent Substrate (Thermo Scientific).

[6] = system: p70 S6 kinase; assay: p70 S6 kinase activity in HPAC pancreatic cancer cells; format: cell-based
Method: (§5) Kinome reprogramming in pancreatic cancer—cell type and inhibitor specific. The kinome response to drug in 3 pancreatic cancer cell lines (HPAC, AsPC-1, HPAF-II) was also evaluated using 3 kinase inhibitors that are currently in Phase I/II clinical trials: BKM120 (Novartis), an oral pan-class 1 PI3K inhibitor, […] (Glaxo Smith-Kline), an ATP competitive PI3K/mTOR inhibitor, and GSK1120212, a reversible allosteric inhibitor of MEK1/2 (Glaxo Smith-Kline). The kinome response for GSK2126458 and GSK1120212 was compared using MIB/MS and RTK arrays to determine if kinome reprogramming was inhibitor-specific. […] Thus, kinome reprogramming is target-specific.

[7] = system: ALK, RET, INSR and IGF-1R; assay: RTK phosphorylation in pancreatic cancer cells (RTK arrays); format: cell-based
Method: as §5
Kinome reprogramming in pancreatic cancer cell lines: HPAC, AsPC-1, HPAF-II cell lines were treated with either GSK1120212, GSK2126458, BKM120 or vehicle control and harvested at […]. Normalized spot intensity of RTK arrays were measured and activated and repressed RTK were determined in response to either GSK1120212 or GSK2126458 4 h and 72 h after treatment.

[8] = system: MDA-MB-231 cells; assay: MDA-MB-231 cell growth (Cell-Titer Glo); format: cell-based, human; settings: for MDA-MB-231 cell growth in combination with AZD6244: combination with AZD6244 (FIG. 12C, 12D, 12G)
Method: as §4

[9] = system: RTKs; assay: RTK expression in SUM159-R cells (western blot, qRT-PCR); format: cell-based, human; settings: 10 nM bortezomib, 24 h
Method: as §3
(§6) Generation of AZD6244 resistant SUM159 cells: SUM159 cells were cultured in DMEM/F12 supplemented with 10% FBS media containing 5 μM AZD6244. Media was changed every 2 days, maintaining inhibitor concentrations of 5 μM AZD6244.

[10] = system: ERK1/2; assay: ERK activity in SUM159-R cells (western blot); format: cell-based, human; settings: sorafenib (250 nM) added to 5 μM AZD6244
Method: as §3, §6, §2

[11] = system: ERK; assay: MEK/ERK activation in C3Tag tumors (western blot); format: in vivo, mouse; settings: AZD6244 20 mg/kg 28 days; sorafenib 30 mg/kg 26 days
Method: (§7) Treatment began the same day. Tumor size was assessed twice weekly by caliper measurements of tumor areas ((width)2×length))/2 for 21 days. […] Drugs were incorporated into the diet of mice to achieve a daily dose of AZD6244 20 mg/kg and sorafenib 30 mg/kg. […] Tumors at harvest were cut in half and either snap-frozen in liquid nitrogen and stored at −80° C. or placed in neutral buffered 10% formalin solution.
as §2, with “Western blots were visualized by incubation with SuperSignal West Pico Chemiluminescent Substrate (Thermo Scientific).” left out

[12] = system: SUM159-R cells; assay: Growth of AZD6244-resistant SUM159-R cells; format: cell-based, human; settings: 250 nM sorafenib, 72 h, cells grown in 5 μM AZD6244
Method: as §4, §6

[13] = system: RTKs; assay: RTK expression in C3Tag tumors (western blot); format: in vivo, mouse; settings: AZD6244 20 mg/kg 28 days; sorafenib 30 mg/kg 26 days
Method: as §7, §2

[14] = system: C3Tag tumors; assay: In vivo tumorigenesis experiment, C3Tag TNBC GEMM (tumor volume); set-up: species or system mouse; settings: C3Tag mice, 21 days, sorafenib 30 mg/kg in diet
Method: In vivo tumorigenesis experiments: Animal handling and procedures were approved by the University of North Carolina at Chapel Hill Institutional Animal Care and Use Committee and followed the NIH guidelines. Male C3Tag mice were bred with wild type females to produce experimental offspring. Mice were examined for tumors weekly until a palpable mass was found. Treatment began the same day. Tumor size was assessed twice weekly by caliper measurements of tumor areas ((width)2×length))/2 for 21 days. Percent change of tumor volume was calculated using (Final volume−Initial Volume)/Initial Volume and graphed using R (http://www.r-project.org/). Drugs were incorporated into the diet of mice to achieve a daily dose of AZD6244 20 mg/kg and sorafenib 30 mg/kg. Food was provided ab libitum and the amount of daily food intake was pre-determined using Jackson Labs Phenome Database. Tumors at harvest were cut in half and either snap-frozen in liquid nitrogen and stored at −80° C. or placed in neutral buffered 10% formalin solution.

[15] = system: kinome (kinase binding to MIBs) of C3Tag tumors; assay: MIB/MS kinome profile of C3Tag tumors; format: in vivo, mouse; settings: sorafenib 30 mg/kg, 26 days
Text: Multiplexed inhibitor bead affinity chromatography: Cells and tumors were lysed and harvested as previously described (Oppermann et al., 2009). Oppermann et al., 2009 Mol Cell Proteo 8 1751-1764. Briefly, lysates were brought to 1 M NaCl and passed through columns of washed inhibitor-conjugated beads (bisindoylmaleimide-X, SB203580, lapatinib, dasatinib, purvalanol B, VI16832, PP58) to isolate protein kinases from the lysates (see Supplemental Experimental Procedures for MIBs preparation). Kinase-bound inhibitor beads were washed with high-salt buffer and 0.1% SDS before elution in 0.5% SDS solution in high heat. Proteins were purified using chloroform/methanol extraction, resuspended in 50 mM ammonium bicarbonate (pH 8.0) or 50 mM HEPES (pH 8.0) for SILAC or iTRAQ respectfully. […]
LC-MS/MS analysis: MS and MS/MS data were acquired using a MALDI TOF/TOF 5800 (AB SCIEX). Peptides were analyzed using ProteinPilot Software Version 3.0 (AB SCIEX) and identification using UniProtKB/Swiss-Prot database (release Oct. 15, 2009). […] ProteinPilot software 3.0 identified and quantified changes in kinase binding to MIBs utilizing the Pro Group Algorithm. […]
Treatment began the same day. Tumor size was assessed twice weekly by caliper measurements of tumor areas ((width)2×length))/2 for 21 days. […]

Compound: Cn1c(=O)n(-c2ccc(C(C)(C)C#N)cc2)c2c3cc(-c4cnc5ccccc5c4)ccc3ncc21 [BEZ235]
- c-Myc expression ([1]; BEZ235 100 nM (FIG. 11C)): does not change
- effect on the ERK pathway [2]: little effect
- p70 S6 kinase activity [3]: inhibits p70 S6 kinase activity
- growth of SUM159 cells ([4]; BEZ235 50 nM): strongly growth arrests
- RTK phosphorylation profile ([5]; 5 μM AZD6244, 50 nM BEZ235 (FIG. 3H)): did not change the RTK phosphorylation profile except for an increase in phospho-AXL

Compound: COc1ncc(-c2ccc3nccc(-c4ccnnc4)c3c2)cc1NS(=O)(=O)c1ccc(F)cc1F [GSK2126458]
- p70 S6 kinase activity [6]: inhibited p70 S6 kinase activity
- ALK, RET, INSR and IGF-1R phosphorylation [7]: induced ALK, RET, INSR and IGF-1R phosphorylation

Compound: CCCS(=O)(=O)Nc1ccc(F)c(C(=O)c2c[nH]c3ncc(Cl)cc23)c1F [PLX4720]
- growth of SUM159 cells, RAF inhibitor in combination with AZD6244 ([4]; cotreatment 72 h (FIG. 12F)): stimulated the growth

Compound: N#CC(=C(/N)Sc1ccccc1N)/C(C#N)=C(\N)Sc1ccccc1N [U0126]
- growth of MDA-MB-231 cells ([8]; 5 μM MEK inhibitor (FIG. 9A)): inhibited growth
- growth of SUM159 cells ([4]; 5 μM MEK inhibitor (FIG. 2A)): inhibited growth

Compound: CC(C)C[C@H](NC(=O)[C@H](Cc1ccccc1)NC(=O)c1cnccn1)B(O)O [bortezomib]
- AZD6244-induced c-Myc degradation ([1]; bortezomib with 5 μM AZD6244, 24 h): prevented AZD6244-induced c-Myc degradation
- RTK expression in SUM159-R cells [9]: readily reversed RTK expression
- AZD6244-dependent upregulation of RTKs ([5]; bortezomib 3, 10 or 20 nM with 5 μM AZD6244, 24 h): inhibited upregulation of RTKs

Compound: COc1cc2c(Oc3ccc(NC(=O)C4(C(=O)Nc5ccc(F)cc5)CC4)cc3F)ccnc2cc1OCCCN1CCOCC1 [foretinib]
- MDA-MB-231 cell growth in combination with AZD6244 [8]: little effect
- SUM159 cell growth inhibition in combination with AZD6244 [4]: synergistic
- SUM159 cell growth inhibition, RTK inhibitor as single agent [4]: ineffective as single agents

Compound: CNC(=O)c1cc(Oc2ccc(NC(=O)Nc3ccc(Cl)c(C(F)(F)F)c3)cc2)ccn1 [sorafenib]
- MDA-MB-231 cell growth in combination with AZD6244 [8]: synergizes
- ERK activity in SUM159-R cells [10]: inhibited ERK activity
- tumor MEK and ERK compared to untreated animals [11]: strongly activated
- growth of SUM159-R cells, cell counts [12]: Inhibited cell growth
- expression of RTKs in C3Tag tumors versus untreated [13]: do not alter RTK expression
- effect on tumor progression [14]: no effect
- SUM159 cell growth inhibition in combination with AZD6244 [4]: synergistic
- SUM159 cell growth inhibition, RTK inhibitor as single agent [4]: ineffective as single agents
- growth of SUM159 cells, sorafenib at the highest dose tested in combination with AZD6244 ([4]; highest dose tested, 72 h): synergistically inhibited growth
- SUM159 proliferation, sorafenib at low doses in combination with AZD6244 ([4]; low doses, 72 h): did not significantly stimulate proliferation
- MIB binding of BRAF, PDGFRβ, CSF1R, DDR1, DDR2, KIT, MLTK and FRK [15]: decreased MIB binding
- Tyr phosphorylation of RTKs induced by AZD6244 ([5]; RTK arrays, 72 h, with AZD6244): inhibited Tyr phosphorylation of multiple RTKs
